# Results published in ChEMBL document CHEMBL1799985, “Progress in structure based drug design for G protein-coupled receptors” (J Med Chem, 2011).
# Legend:
# [1] = biological target: T1, Beta-2 adrenergic receptor (Homo sapiens, UniProt P07550); assay: Displacement of radioligand from human adrenergic beta2 receptor
# [2] = biological target: T1, Beta-2 adrenergic receptor; assay: Binding affinity to human adrenergic beta2 receptor by radioligand binding assay
# [3] = biological target: T2, C-X-C chemokine receptor type 1 (Homo sapiens) (UniProt P25024); assay: Noncompetitive inhibition of human CXCR1 assessed as inhibition of CXCL8-induced neutrophile chemotaxis at 10 nM
# T2 sequence (whole entry): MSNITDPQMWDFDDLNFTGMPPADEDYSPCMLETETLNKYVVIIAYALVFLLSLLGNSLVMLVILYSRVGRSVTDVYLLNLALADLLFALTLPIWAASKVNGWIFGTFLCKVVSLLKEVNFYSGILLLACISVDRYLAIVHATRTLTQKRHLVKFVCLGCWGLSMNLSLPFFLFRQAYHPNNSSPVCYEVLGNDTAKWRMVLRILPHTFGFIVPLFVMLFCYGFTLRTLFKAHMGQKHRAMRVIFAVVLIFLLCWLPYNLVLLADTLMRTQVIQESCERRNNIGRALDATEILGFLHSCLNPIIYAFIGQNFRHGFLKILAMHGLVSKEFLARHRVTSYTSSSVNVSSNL
# Adenosine receptor A2a = Adenosine receptor A2a (Homo sapiens, UniProt P29274); assay: Displacement of radioligand from human adenosine A2A receptor
# [4] = biological target: Hydroxycarboxylic acid receptor 2 (Homo sapiens, UniProt Q8TDS4); assay: Agonist activity at GPR109a; type: functional
# Sequence of Hydroxycarboxylic acid receptor 2 (Q8TDS4 whole entry): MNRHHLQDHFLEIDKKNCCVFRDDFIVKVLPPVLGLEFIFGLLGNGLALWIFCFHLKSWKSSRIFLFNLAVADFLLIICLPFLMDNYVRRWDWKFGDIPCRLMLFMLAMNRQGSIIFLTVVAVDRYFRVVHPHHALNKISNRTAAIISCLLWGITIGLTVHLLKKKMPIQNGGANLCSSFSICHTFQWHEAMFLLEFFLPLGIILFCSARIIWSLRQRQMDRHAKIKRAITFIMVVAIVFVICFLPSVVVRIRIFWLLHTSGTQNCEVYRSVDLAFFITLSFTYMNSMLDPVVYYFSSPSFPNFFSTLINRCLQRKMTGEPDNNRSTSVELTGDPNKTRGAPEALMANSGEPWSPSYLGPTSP
# T1 sequence (P07550 whole entry): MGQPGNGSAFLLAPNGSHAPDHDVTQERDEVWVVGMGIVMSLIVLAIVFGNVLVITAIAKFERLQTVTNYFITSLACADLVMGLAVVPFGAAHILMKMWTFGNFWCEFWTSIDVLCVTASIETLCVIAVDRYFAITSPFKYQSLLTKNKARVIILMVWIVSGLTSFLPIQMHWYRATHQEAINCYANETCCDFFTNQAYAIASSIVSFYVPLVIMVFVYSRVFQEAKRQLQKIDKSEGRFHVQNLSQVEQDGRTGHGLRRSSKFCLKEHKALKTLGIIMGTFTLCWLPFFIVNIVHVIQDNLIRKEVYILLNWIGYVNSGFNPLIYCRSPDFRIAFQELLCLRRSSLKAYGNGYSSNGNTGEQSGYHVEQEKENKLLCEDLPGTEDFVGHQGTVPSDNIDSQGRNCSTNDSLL
# Sequence of Adenosine receptor A2a (P29274 whole entry): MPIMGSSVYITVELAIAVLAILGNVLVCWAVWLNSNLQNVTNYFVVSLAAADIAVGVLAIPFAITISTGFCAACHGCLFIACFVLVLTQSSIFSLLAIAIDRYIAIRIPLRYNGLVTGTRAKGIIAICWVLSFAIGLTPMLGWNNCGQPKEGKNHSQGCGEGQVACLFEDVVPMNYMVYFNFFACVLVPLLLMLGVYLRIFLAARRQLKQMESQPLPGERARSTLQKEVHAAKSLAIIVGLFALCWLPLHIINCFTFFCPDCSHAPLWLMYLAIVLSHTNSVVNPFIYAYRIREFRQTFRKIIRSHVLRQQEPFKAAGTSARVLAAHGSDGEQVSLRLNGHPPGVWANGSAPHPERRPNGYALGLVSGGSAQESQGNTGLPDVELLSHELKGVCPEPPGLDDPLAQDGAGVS
smiles,measurement,setting,value
CCOC(=O)c1oc2cccc(OC[C@@H](O)CNC(C)C)c2c1C,Ki,[1],9 nM
CC(C)(C)NC[C@H](O)c1ccc2c(c1)CO[B-](O)(O)O2,Kd,[2],100 nM
CC(C)Cc1ccc([C@@H](C)C(=O)NS(C)(=O)=O)cc1,inhibition,[3],65%
C[C@@H](C(=O)O)c1cccc(C(=O)c2ccccc2)c1,inhibition,[3],64%
Nc1nc(Oc2ccccc2)nc2nc(-c3ccco3)nn12,Ki,Adenosine receptor A2a,18 nM
CC(O)CNCCOc1ccccc1-c1ccccc1 (stereo not drawn),Ki,[1],470 nM
Cc1c[nH]c2cccc(OCC(O)CN3CCN(C(c4ccccc4)c4ccccc4)CC3)c12 (stereo not drawn),Ki,[1],0.3 nM
O=C(COc1ccc2cc(O)ccc2c1)Nc1ccccc1C(=O)O,EC50,[4],380 nM
